# Target: T1, Monocarboxylate transporter 1 (Rattus norvegicus) (UniProt P53987)
# T1 sequence (whole entry): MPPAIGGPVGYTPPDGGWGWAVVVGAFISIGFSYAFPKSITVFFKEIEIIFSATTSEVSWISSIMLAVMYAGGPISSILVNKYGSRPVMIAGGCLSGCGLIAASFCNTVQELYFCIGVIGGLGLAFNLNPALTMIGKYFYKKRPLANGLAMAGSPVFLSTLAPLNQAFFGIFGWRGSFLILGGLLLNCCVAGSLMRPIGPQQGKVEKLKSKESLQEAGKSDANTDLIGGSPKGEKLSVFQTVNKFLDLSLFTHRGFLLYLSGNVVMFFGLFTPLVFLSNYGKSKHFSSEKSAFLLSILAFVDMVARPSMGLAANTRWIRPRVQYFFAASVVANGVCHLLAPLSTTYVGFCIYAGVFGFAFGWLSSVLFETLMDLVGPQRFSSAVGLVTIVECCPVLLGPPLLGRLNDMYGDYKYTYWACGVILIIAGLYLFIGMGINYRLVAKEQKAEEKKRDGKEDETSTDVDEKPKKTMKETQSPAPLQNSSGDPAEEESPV
# Assay: TP_TRANSPORTER: uptake in Xenopus laevis oocytes
# Type: functional, cell-based
# Conditions: Oocyte
row,SMILES,Activity
1,C[C@H](O)C(=O)O,substrate [+]
2,C[C@@H](O)C(=O)O,substrate [+]

# — ChEMBL document CHEMBL2073919, “cDNA cloning and functional characterization of rat intestinal monocarboxylate transporter” (Biochem Biophys Res Commun, 1995)
